Results reported in patent US8182793B2, “Sunless tanning products and processes” (Concept Laboratories, priority 2004, dated 2012).
Read-outs that look alike come from different tables or passages of the source.

Experiments:
[1] = system: skin; assay: Tanning response on forearm skin, visual assessment of color development on a 1-6 point scale; format: in vivo, human
Experimental: Simple aqueous formulations of dihydroxyacetone and sodium lactate were first evaluated for tanning response on skin. The formulations evaluated and the tanning responses obtained are shown in Tables 3 (formulations) and Table 4 (tanning response of Table 3 formulas).
(§1) An equal amount of each formula (approximately 150 mg.) from Table 3 was applied to 2″×2″ adjacent sections of forearm, allowed to dry and covered with clothing for the duration of the testing. The application areas were visibly the same color prior to treatment with the solutions and this was confirmed via calorimeter readings. Visual assessment of color development was made 24 hours post application using a 1-6 point scale with 1 signifying no color development versus non-treated skin, 3 signifying moderate color development and 6 signifying intensely dark color development. A commercial sunless tanning solution containing 10% DHA was used as a positive control.
as §1, with “As before, an equal” for “An equal”, “Table 5” for “Table 3”, “via colorimeter” for “via calorimeter”, “24 hours and at 48” for “24”, “development.” for “development. A commercial sunless tanning solution containing 10% DHA was used as a positive control.”
A control formula containing 10% DHA, 5% butylene glycol and 5% methylsulfonylmethane was used as a positive control. Past studies as outlined in applicants' co-pending application Ser. No. 10/382,868 titled SUNLESS TANNING PRODUCTS AND PROCESSES, filed on Mar.

[2] = system: stratum corneum; assay: In vivo water binding capacity, Nova Dermal Phase Meter (conductance); conditions: added to aqueous solutions of DHA
Experimental: In addition to the water activity screening and the tanning experiments conducted with simple aqueous solutions of DHA, sodium lactate, and glycols, objective instrumental testing for in vivo water binding capacity of these DHA-sodium lactate-glycol solutions was conducted.
The Nova Meter measures water content of the top layers of the skin indirectly via conductance measurements.

[3] = Water activity (aw) measured with Aqualab 3TE instrument; format: physicochemical; conditions: for Reduction of water activity compared with other screened materials (in words): additive screening, aqueous solutions
Excerpt: There is no device that can be put into a product to directly measure the water activity. However, the water activity of a product can be determined, indirectly, from the relative humidity of the air surrounding the sample when the air and the sample are at equilibrium. Therefore, the sample must be in an enclosed space where this equilibrium can take place. Once this occurs, the water activity of the sample and the relative humidity of the air are equal. The measurement taken at equilibrium is called an equilibrium relative humidity or ERH.
In practice, water activity can be determined by use of the Aqualab© (Decagon, Inc., Pullman, Wash.) or HygroLab© (Rotronic, Inc., Huntington, N.Y.). For all of the experimental water activity data recorded and detailed in this application, an Aqualab 3T-E instrument with an accuracy of +/−0.003 units and with automatic temperature equilibration (23.7+/−0.2° C.) capability was utilized.
In the AquaLab instrument, a sample is equilibrated within the headspace of a sealed chamber containing a mirror, an optical sensor, an internal fan, and an infrared temperature sensor. At equilibrium, the relative humidity of the air in the chamber is the same as the water activity of the sample. A thermoelectric (Peltier) cooler precisely controls the mirror temperature. An optical reflectance sensor detects the exact point at which condensation first appears. A beam of infrared light is directed onto the mirror and reflected back to a photodetector which detects the change in reflectance when condensation occurs on the mirror. A thermocouple attached to the mirror accurately measures the dew-point temperature. The internal fan is for air circulation, which reduces vapor equilibrium time and controls the boundary layer conductance of the mirror surface. Additionally, a thermopile sensor (infrared thermometer) measures the sample surface temperature. Both the dew point and sample temperatures are then used to determine the water activity. During a water activity measurement, the AquaLab repeatedly determines the dew-point temperature until vapor equilibrium is reached. Since the measurement is based on temperature determination, calibration is not necessary, but measuring a standard salt solution checks proper functioning of the instrument. If there is a problem, the mirror is easily accessible and can be cleaned in a few minutes.
Sunless tanning formulations typically contain 3-10% by weight of DHA as the primary tanning agent dissolved in water. DHA is a water soluble sugar, and, as with other sugars or solutes will decrease the water activity as compared to pure water (aw=1.00). Solutes dilute the water, increasing its entropy and therefore lowering its energy state. These two effects combine to lower the total free energy of the water.
An arbitrary upper limit of 0.900 for aqueous solutions of additives was set for the screening studies. In other words, any cosmetic or pharmaceutical additive investigated must lower the aw of water from 1.000 to 0.900 or below when tested at a concentration that was judged to be the upper practical limit for inclusion based on safety and general cosmetic acceptability.

[4] = moisture loss figure, Purac citation (Osipow); cited from earlier work
[5] = system: skin; conditions: earlier studies of the applicant in prior filings Ser. No. 10/382,868 & 10/694,972; cited from earlier work

CC(O)C(=O)[O-].[Na+] (stereo not drawn) [Sodium Lactate, sodium lactate]
Effect on the tanning response of DHA ([1]; added to 5% DHA solutions): enhancement of the tanning response was recorded | Effect on the tanning response of DHA ([1]; use concentrations of 0.5-5.0%): Enhance the tanning response of DHA | Water holding capacity of the stratum corneum (moisturizing effect) [2]: improve the water holding capacity of the stratum corneum | Water Activity (aw) ([3]; Sodium Lactate 6.0 % w/w): 0.991 | Water Activity (aw) ([3]; Sodium Lactate 12.0 % w/w): 0.944 | Water Activity (aw) ([3]; Sodium Lactate 18.0 % w/w): 0.913 | Water Activity (aw) ([3]; Sodium Lactate 24.0 % w/w): 0.880 | Water Activity (aw) ([3]; Sodium Lactate 30.0 % w/w): 0.840 | Reduction of water activity compared with other screened materials (in words) [3]: capable of reducing the water activity to a greater extent than any other material screened | Water activity (Aw) ([3]; aqueous solutions at concentrations of 25% w/w or less): below 0.900 | Concentration meeting the screening criterion of reduction of aw to 0.900 or less ([3]; read from Table 2): 18-24% | Water-holding capacity [4]: double the capacity of glycerin

O=C1CCC(C(=O)[O-])N1.[Na+] (stereo not drawn) [Sodium PCA, sodium pyrrolidone carboxylic acid]
Reduction of water activity compared with other screened materials (in words) [3]: capable of reducing the water activity to a greater extent than any other material screened

OCC(O)CO [glycerol, reference compound]
Lowering of water activity compared with other glycols (in words) ([3]; 10% in 10% DHA solution, Table 1): lower the water activity to a greater extent than the other glycols evaluated | Effect on the tanning response of DHA [5]: somewhat of an inhibitory effect on the tanning response of DHA | Water-holding capacity [4]: equal water-holding capacity

CC(O)C(=O)O (stereo not drawn) [lactic acid]
Effect on the tanning response of DHA ([1]; added to 5% DHA solutions): enhancement of the tanning response was recorded | Water-holding capacity [4]: equal water-holding capacity
